Measured values published in US20080200403A1, “9A-Carbamoyl and Thiocarbamoyl Azalides with Anti-Inflammatory Activity” (GLAXOSMITHKLINE, priority 2005, published 2008).
Like-named read-outs stand apart in the source and are kept apart here.

Assays:
Format in all cases: cell-based
TNF-α = assay: Inhibition of TNF-α production by stimulated human peripheral blood leukocytes in vitro; conditions: PBL; for inhibition at 10 µM / inhibition at 50 µM: Homo sapiens, Leukocyte, read-out: Percentage of inhibition of TNF-α production
In short: (§1)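 Dextran-isolated human PBL (3-5×10^6 per well) in RPMI with 10% FCS were preincubated 2 h at 37 °C with compounds at 50 μM or 10 μM final, then stimulated overnight with 2 μg/mL LPS, 1 μg/mL PMA or 120 μg/mL zymosan. Supernatant cytokines by sandwich ELISA; % inhibition versus stimulated untreated control.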

IL-1α = assay: Inhibition of IL-1 production by stimulated human peripheral blood leukocytes in vitro; conditions: PBL; for inhibition at 10 µM / inhibition at 50 µM: Homo sapiens, Leukocyte, read-out: Percentage of inhibition of IL-1α production
IL-6 = assay: Inhibition of IL-6 production by stimulated human peripheral blood leukocytes in vitro; conditions: PBL; for inhibition at 10 µM / inhibition at 50 µM: Homo sapiens, Leukocyte, read-out: Percentage of inhibition of IL-6 production
In short: as §1

Hep G2 = assay: MTT cytotoxicity assay on Hep G2 cell line
In short: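 Cells cultured 24 h at 37 °C in RPMI with compounds at 50 μM and 12.5 μM, then MTT added for 0.5-2 h. Formazan read at 490 nm. % viable cells = ([…]OD490 treated/OD490 nontreated)×100.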

[1] = test system: human peripheral blood mononuclear cells (PBMC); assay: Human T-cell proliferation in vitro (3H-thymidine incorporation); conditions: for inhibition at 10 µM / inhibition at 50 µM: Homo sapiens, PBMC, read-out: Percentage of inhibition of proliferation of stimulated PBMC
In short: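 Donor PBMC isolated on Histopaque, 5×10^4 cells/well cultured 3 days at 37 °C with PHA (2.5 μg/mL) or PMA (10 ng/mL) plus ionomycin (500 ng/mL), and compound at 50 μM or 10 μM. 3H-thymidine pulse during final 18 h; % inhibition versus stimulated untreated cpm.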

IL-8 = assay: Inhibition of IL-8 production by stimulated human peripheral blood leukocytes in vitro; conditions: PBL; for inhibition at 10 µM / inhibition at 50 µM: Homo sapiens, Leukocyte, read-out: Percentage of inhibition of IL-8 production
In short: as §1

[2] = zymosan stimulated, compound 10 μM
[3] = zymosan stimulated, compound 50 μM
[4] = PMA + ionomycin stimulated, compound 10 μM
[5] = PMA + ionomycin stimulated, compound 50 μM

SMILES: CCC1OC(=O)C(C)C(OC2CC(C)(OC)C(O)C(C)O2)C(C)C(OC2OC(C)CC(N(C)C)C2O)C(C)(O)CC(C)CN(C(=S)Nc2cccc(F)c2)C(C)C(O)C1(C)O (stereo not drawn) [Compound 3]
- Percentage of inhibition of TNF-α production (TNF-α; LPS stimulated, compound 10 μM): 45%
- Percentage of inhibition of TNF-α production (TNF-α; LPS stimulated, compound 50 μM): 74%
- Percentage of inhibition of TNF-α production (TNF-α; PMA stimulated, compound 10 μM): 37%
- Percentage of inhibition of TNF-α production (TNF-α; PMA stimulated, compound 50 μM): 75%
- Percentage of inhibition of TNF-α production (TNF-α; [2]): 71%
- Percentage of inhibition of TNF-α production (TNF-α; [3]): 94%
- Percentage of inhibition of IL-1α production (IL-1α; LPS stimulated, compound 10 μM): 52%
- Percentage of inhibition of IL-1α production (IL-1α; LPS stimulated, compound 50 μM): 30%
- Percentage of inhibition of IL-1α production (IL-1α; PMA stimulated, compound 10 μM): 4%
- Percentage of inhibition of IL-1α production (IL-1α; PMA stimulated, compound 50 μM): 0%
- Percentage of inhibition of IL-1α production (IL-1α; [2]): 75%
- Percentage of inhibition of IL-1α production (IL-1α; [3]): 74%
- Percentage of inhibition of IL-6 production (IL-6; LPS stimulated, compound 10 μM): 13%
- Percentage of inhibition of IL-6 production (IL-6; LPS stimulated, compound 50 μM): 79%
- Percentage of inhibition of IL-6 production (IL-6; PMA stimulated, compound 10 μM): 24%
- Percentage of inhibition of IL-6 production (IL-6; PMA stimulated, compound 50 μM): 9%
- Percentage of inhibition of IL-6 production (IL-6; [2]): 59%
- Percentage of inhibition of IL-6 production (IL-6; [3]): 81%
- Percentage of viable cells after treatment (Hep G2; Hep G2, 24 h, compound 12.5 μM): 100%
- Percentage of viable cells after treatment (Hep G2; Hep G2, 24 h, compound 50 μM): >85%
- Percentage of inhibition of proliferation of stimulated PBMC ([1]; PHA stimulated, compound 10 μM): 26%
- Percentage of inhibition of proliferation of stimulated PBMC ([1]; PHA stimulated, compound 50 μM): 100%
- Percentage of inhibition of proliferation of stimulated PBMC [1, 4]: 23%
- Percentage of inhibition of proliferation of stimulated PBMC [1, 5]: 92%
- Percentage of inhibition of IL-8 production (IL-8; LPS stimulated, compound 10 μM): 38%
- Percentage of inhibition of IL-8 production (IL-8; LPS stimulated, compound 50 μM): 81%
- Percentage of inhibition of IL-8 production (IL-8; PMA stimulated, compound 10 μM): 61%
- Percentage of inhibition of IL-8 production (IL-8; PMA stimulated, compound 50 μM): 47%
- Percentage of inhibition of IL-8 production (IL-8; [2]): 40%
- Percentage of inhibition of IL-8 production (IL-8; [3]): 88%

SMILES: CC[C@H]1OC(=O)[C@H](C)[C@@H](O[C@H]2C[C@@](C)(OC)[C@@H](O)[C@H](C)O2)[C@H](C)[C@@H](O[C@@H]2O[C@H](C)C[C@H](N(C)C)[C@H]2O)[C@](C)(O)C[C@@H](C)CN(C(=S)Nc2ccccc2F)[C@H](C)[C@@H](O)[C@]1(C)O [Compound 5]
- inhibition at 10 µM (TNF-α; LPS stimulated, compound 10 μM): 19%
- inhibition at 50 µM (TNF-α; LPS stimulated, compound 50 μM): 45%
- inhibition at 10 µM (TNF-α; PMA stimulated, compound 10 μM): 62%
- inhibition at 50 µM (TNF-α; PMA stimulated, compound 50 μM): 85%
- inhibition at 10 µM (TNF-α; [2]): 49%
- inhibition at 50 µM (TNF-α; [3]): 76%
- inhibition at 10 µM (IL-1α; LPS stimulated, compound 10 μM): 41%
- inhibition at 50 µM (IL-1α; LPS stimulated, compound 50 μM): 10%
- inhibition at 10 µM (IL-1α; PMA stimulated, compound 10 μM): 14%
- inhibition at 50 µM (IL-1α; PMA stimulated, compound 50 μM): 14%
- inhibition at 10 µM (IL-1α; [2]): 27%
- inhibition at 50 µM (IL-1α; [3]): 41%
- inhibition at 10 µM (IL-6; LPS stimulated, compound 10 μM): 64%
- inhibition at 50 µM (IL-6; LPS stimulated, compound 50 μM): 72%
- inhibition at 10 µM (IL-6; PMA stimulated, compound 10 μM): 44%
- inhibition at 50 µM (IL-6; PMA stimulated, compound 50 μM): 60%
- inhibition at 10 µM (IL-6; [2]): 66%
- inhibition at 50 µM (IL-6; [3]): 88%
- Percentage of viable cells after treatment (Hep G2; human, 24 h, 12.5 μM): 100%
- Percentage of viable cells after treatment (Hep G2; human, 24 h, 50 μM): 100%
- inhibition at 10 µM ([1]; PHA stimulated, compound 10 μM): 0%
- inhibition at 50 µM ([1]; PHA stimulated, compound 50 μM): 72%
- inhibition at 10 µM [1, 4]: 20%
- inhibition at 50 µM [1, 5]: 87%
- inhibition at 10 µM (IL-8; LPS stimulated, compound 10 μM): 16%
- inhibition at 50 µM (IL-8; LPS stimulated, compound 50 μM): 42%
- inhibition at 10 µM (IL-8; PMA stimulated, compound 10 μM): 23%
- inhibition at 50 µM (IL-8; PMA stimulated, compound 50 μM): 69%
- inhibition at 10 µM (IL-8; [2]): 20%
- inhibition at 50 µM (IL-8; [3]): 46%
